The record followed here is patent publication US20140328940A1, “MODULATION OF AXON DEGENERATION” (Genentech, Inc., priority 2009, published 2014).

A short description of data set [1]: vincristine challenge of cortical neurons, viability assay. It is filed as cell-based. The following applies: rat, primary E18 cortical neurons; 12 hour vincristine (300 nM); read-out: % Viability (normalized). On the procedure: (§1) Cortical neurons were isolated using the following procedure. Rat E18 cortices devoid of meninges were dissected into ice-cold neurobasal media (Invitrogen). Cortices were dissociated in a final concentration of 0.1% trypsin/PBS (Worthington) for 30 minutes at 37° C. A final concentration of 0.1% RNase (Roche) was added to the tube and tissue was incubated at room temperature for 1 minute. Tissue was washed once with warm neurobasal media and the tissue was allowed to settle in the tube before 1 mL of neurobasal media containing 2% B27 supplement (Invitrogen) was added. Tissue was dissociated by trituration with a P1000 pipet (Rainin). The cells were counted and, for some experiments, transfected with siRNAs using a Biosystem 96-well nucleofector (Amaxa).
(§2) Cells were plated in 6- or 8-well chambers or 96-well poly-D-lysine coated dishes (BD Biosciences) at plated cell densities of 2×10^6 cells/well, 1.25-2×10^5 cells/well, or 1×10^4 cells/well, respectively, for siRNA experiments (densities that allow for some cell death normally associated with the electroporation process). […] Gene silencing was assayed 3-4 days after plating by quantitative reverse transcriptase polymerase chain reaction (qRT-PCR). […] Each reaction containing 10 ng of RNA was run in triplicate using the Quantifect SYBR Green RT-PCR kit (Qiagen) with DLK-, JNK1-, JNK2-, or JNK3-specific primers. […]

For another data set, the system named is cortical neurons. Nature of the data set: vincristine challenge of cortical neurons, LDH assay. The format is cell-based, rat. The note with it: 20 hour vincristine (300 nM). On the procedure:
as §1, §2

Data set [2] can be described thus: toxin-induced degeneration of sympathetic neurons (MTT assay). It is filed as cell-based. The following applies: Sprague-Dawley, rat, primary sympathetic neurons from cervical ganglia, 24 hour vincristine, read-out: % viability (normalized). On the procedure: Sympathetic cervical ganglia were dissected from postnatal day 1 Sprague-Dawley rats (Charles River Labs) and collected in a dish containing Ultraculture media (Lonza) with 5% fetal bovine serum (Invitrogen). Ganglia were washed twice with serum-free Ultraculture media, and a final concentration of 0.1% trypsin (Worthington) was added and incubated with the tissue at 37° C. for 30 minutes. One percent DNase (Roche) solution in PBS was added to the ganglia and incubated at room temperature for 1-2 minutes. Ganglia were washed with Ultraculture and allowed to settle to the bottom of the tube. All wash media were removed and 1 mL plating media containing Ultraculture, 5% rat serum, 1% penicillin-streptomycin, 1% glutamax, 7 μM cytosine arabinoside (Sigma), and 50 ng/mL nerve growth factor (2.5S, Cedarlane Laboratory) was added to the tube. Ganglia were dissociated by trituration using a pipet (Rainin). The cell slurry was filtered over a […] cell strainer (Falcon) and cell number was counted. Sympathetic neurons were plated at a density of 5000-7500 cells/well (96-well dish), 200,000 cells/well (6-well plate), or 100,000 cells/well (8-well chamber slide) and grown for 4-5 days in 5% CO2 at 37° C. Every other day neurons were fed with fresh plating media containing 5-10 ng/mL NGF.
NGF withdrawal assays were performed as described in Example 14A. […]

In the case of `CC[C@]1(O)C[C@H]2CN(CCc3c([nH]c4ccccc34)[C@@](C(=O)OC)(c3cc4c(cc3OC)N(C=O)[C@H]3[C@@](O)(C(=O)OC)[C@H](OC(C)=O)[C@]5(CC)C=CCN6CC[C@]43[C@@H]65)C2)C1` [vincristine], in data set [1], the viability at 12 h, 0.3 µM was found to be 77%. Also, in the data set with cortical neurons, the “% cell death (normalized)” value is 100%. The viability at 24 h in data set [2] came to 28%.

A word on the viability: it is a per cent measure of how many cells are alive, often set against a control.
